What was measured:
LNCaP = test: Cytotoxicity against human androgen receptor positive LNCAP cells after 72 hrs by MTT assay; format: functional, cell-based
PC-3 = test: Cytotoxicity against human androgen receptor negative PC3 cells after 72 hrs by MTT assay; format: functional, cell-based; settings: PC-3, 72 h

| SMILES | IC50 (LNCaP) [µM] | IC50 (PC-3) [µM] |
| --- | --- | --- |
| C[C@]12CC[C@H]3[C@@H]([C@@H](C/C=C\C[C@H]4CC5=CC(=O)CC[C@]5(C)[C@H]5CC[C@]6(C)[C@@H](O)CC[C@H]6[C@H]45)CC4=CC(=O)CC[C@@]43C)[C@@H]1CC[C@@H]2O | 30.3 | 24.7 |
| C[C@]12CC[C@H]3[C@@H]([C@@H](C/C=C/C[C@H]4CC5=CC(=O)CC[C@]5(C)[C@H]5CC[C@]6(C)[C@@H](O)CC[C@H]6[C@H]45)CC4=CC(=O)CC[C@@]43C)[C@@H]1CC[C@@H]2O | – | 35.7 |
| CC(=O)O[C@]1(C(C)=O)CC[C@H]2[C@@H]3C=C(Cl)C4=CC(=O)[C@@H]5C[C@@H]5[C@]4(C)[C@H]3CC[C@@]21C [CYPROTERONE ACETATE] | 43 | 32.3 |
